Legend:
[1] = Lipophilicity, log P of the compound by HPLC analysis; assay type: physicochemical
[2] = Half life in rat liver microsomes; assay type: ADME
[3] = Intrinsic clearance in human hepatocytes assessed per 10^6 cells; assay type: ADME, cell-based, Hepatocyte; conditions: read-out: CLH
[4] = target: Melanin-concentrating hormone receptor 1 (Homo sapiens, UniProt Q99705); assay: Displacement of [125I]-MCH from human MCH-R1 expressed in CHO/Galpha16 cells after 60 mins by scintillation counting; assay type: cell-based
Chain of Melanin-concentrating hormone receptor 1 (Q99705 whole entry): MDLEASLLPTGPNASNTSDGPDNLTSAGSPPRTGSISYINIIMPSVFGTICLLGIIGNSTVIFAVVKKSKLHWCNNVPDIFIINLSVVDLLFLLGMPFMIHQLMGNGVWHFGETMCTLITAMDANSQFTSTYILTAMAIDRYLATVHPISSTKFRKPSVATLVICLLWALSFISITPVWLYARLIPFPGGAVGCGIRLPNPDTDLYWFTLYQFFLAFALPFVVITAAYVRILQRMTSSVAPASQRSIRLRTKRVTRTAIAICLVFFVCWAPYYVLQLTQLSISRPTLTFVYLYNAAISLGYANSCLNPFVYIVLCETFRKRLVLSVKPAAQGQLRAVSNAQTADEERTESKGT

hERG (KCNH2) = hERG (KCNH2) (Homo sapiens, UniProt Q12809); assay: Inhibition of human ERG at 10 uM by patch clamp assay
Chain of hERG (KCNH2) (Q12809 whole entry): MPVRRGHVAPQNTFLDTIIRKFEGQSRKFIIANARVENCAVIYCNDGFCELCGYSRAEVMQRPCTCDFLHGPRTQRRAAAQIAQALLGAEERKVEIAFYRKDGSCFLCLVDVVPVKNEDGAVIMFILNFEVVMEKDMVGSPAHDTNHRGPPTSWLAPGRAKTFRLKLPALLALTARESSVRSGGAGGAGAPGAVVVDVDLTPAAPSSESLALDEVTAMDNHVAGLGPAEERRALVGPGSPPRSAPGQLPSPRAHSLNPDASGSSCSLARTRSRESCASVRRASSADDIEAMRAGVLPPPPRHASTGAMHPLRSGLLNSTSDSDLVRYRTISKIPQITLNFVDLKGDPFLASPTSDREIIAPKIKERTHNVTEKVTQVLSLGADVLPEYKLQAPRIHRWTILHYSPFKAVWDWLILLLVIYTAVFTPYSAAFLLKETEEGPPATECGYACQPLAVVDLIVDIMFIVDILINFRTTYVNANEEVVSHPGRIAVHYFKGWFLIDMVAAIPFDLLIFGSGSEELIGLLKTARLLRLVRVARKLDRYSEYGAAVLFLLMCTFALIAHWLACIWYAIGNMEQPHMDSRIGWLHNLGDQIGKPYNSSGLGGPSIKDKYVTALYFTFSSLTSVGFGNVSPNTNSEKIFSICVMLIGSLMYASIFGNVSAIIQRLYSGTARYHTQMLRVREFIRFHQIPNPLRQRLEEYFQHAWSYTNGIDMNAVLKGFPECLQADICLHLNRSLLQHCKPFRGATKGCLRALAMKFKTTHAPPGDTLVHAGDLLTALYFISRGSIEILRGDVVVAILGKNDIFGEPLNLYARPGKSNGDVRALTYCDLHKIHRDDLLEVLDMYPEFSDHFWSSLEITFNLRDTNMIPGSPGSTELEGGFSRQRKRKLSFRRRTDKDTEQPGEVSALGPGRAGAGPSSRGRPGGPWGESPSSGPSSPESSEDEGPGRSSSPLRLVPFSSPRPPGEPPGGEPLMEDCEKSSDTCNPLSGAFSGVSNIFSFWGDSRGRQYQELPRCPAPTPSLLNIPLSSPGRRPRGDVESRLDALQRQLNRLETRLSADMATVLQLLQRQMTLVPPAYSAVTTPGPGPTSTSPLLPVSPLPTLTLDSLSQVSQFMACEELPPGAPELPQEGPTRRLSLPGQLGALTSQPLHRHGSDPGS

U-937 = assay: Toxicity in human U937 cells assessed as first effect concentration for phospholipidosis by nile red uptake assay; assay type: cell-based
Homo sapiens [5] = organism: Homo sapiens; assay: Selectivity ratio, ratio of muscarinic M1 receptor (unknown origin) to human MCH-R1
Homo sapiens [6] = organism: Homo sapiens; assay: Selectivity ratio, ratio of 5HT2A receptor (unknown origin) to human MCH-R1

Compound	logP [1]	half-life [2] [min]	hepatocyte CLint [3] [µL/min/1e6 cells]	IC50 [4] [µM]	Ratio (Homo sapiens [5])	Ratio (Homo sapiens [6])	inhibition at 10 µM (hERG (KCNH2)) [%]	Activity (U-937) [µM]
CN(C)Cc1ccc(C(=O)Cn2ncc(OCc3ccc(Br)cn3)cc2=O)cc1	3.1	7	58	0.022				
Cc1cc(CN(C)C)ccc1C(=O)Cn1ncc(OCc2ccc(Cl)cn2)cc1=O	3.1	> 45						50
Cc1cc(CN(C)C)ccc1C(=O)Cn1ncc(OCc2ccccc2)cc1=O	3.8	15	4.8	0.0087			88	50
CN(C)Cc1ccc(C(=O)Cn2ncc(OCc3ccccc3)cc2=O)cc1	3.6	6	17	0.01				

Now from value to compound, other results behind:

logP [1]	half-life [2] [min]	hepatocyte CLint [3] [µL/min/1e6 cells]	IC50 [4] [µM]	Ratio (Homo sapiens [5])	Ratio (Homo sapiens [6])	Compound	inhibition at 10 µM (hERG (KCNH2)) [%]	Activity (U-937) [µM]
2.8	45	21				Cc1cc(CN(C)C)ccc1C(=O)Cn1ccc(OCc2ccc(Br)cn2)cc1=O	42	50
3	23	24	0.013	> 200	> 200	CN(C)Cc1ccc(C(=O)Cn2ccc(OCc3ccccc3)cc2=O)cc1	63	100
3.2	5		0.007			CN(C)Cc1ccc(CCn2ccc(OCc3ccccc3)cc2=O)cc1		100
